Consider three molecules from patent publication US10918599B2, “Serum-stable compositions and methods for light-triggered release of materials” (priority 2015, dated 2021).

The conditions of data set [1]: mice; cited from earlier work.
Data set [2] concerns MIA Paca-2 tumors. The experiment in a line: Survival study, phototreatment efficacy (Example 1). Type of data set: in vivo.
Protocol: Survival study. 5×10^6 MIA Paca-2 cells (obtained from ATTC) were injected in the right flank female nude mice mice (5 weeks, Jackson Labs, #007850). […] N=5-6. Dose for Dox-PoP is 7 mg/kg for Dox and the dose of PoP was adjusted to be equivalent to that of Dox-PoP 7 mg/kg (Dox to lipid loading ratio 1:5), which is 1.225 mg/kg (1.21 μmol/kg Pyro-phospholipid). […] 21 mg/kg of sterically stabilized liposomal Dox (HSPC:CHOL:DSPE-PEG-2K=56.3:38.4:5.3% mole) was used for standard treatment of Doxil®. Free Dox 7 mg/kg was used as a free drug control. 1 h after intravenous injection, tumors that need laser treatment were all irradiated at a fluence rate of 300 W/cm^2 for 16 min 40 s (total fluence 300 J/cm^2). HPPH was diluted in PBS containing 2% ethanol and 0.2% Tween 80 and injected at a dose of 1.21 μmol/kg. Light treatment was performed 24 h post injection. Tumor size was monitored 2-3 times per week and tumor volumes were estimated by measuring three tumor dimensions using a caliper and the ellipsoid formula: Volume=π·L·W·H/6, where L, W and H are the length, width and height of the tumor, respectively. The weights of the mice were monitored every week. MIA PaCa-2 mice were sacrificed when the volume exceeded 10 times of its initial volume.
For Kaplan-Meier survival curve, each pair of group were compared by Log-rank (Mantel-Cox) test. […]
Data set [3] concerns MIA Paca-2 tumors. The following applies: mice, single dose; cited from earlier work.

As to `C=CC1=C(C)c2cc3[nH]c(c4c5nc(cc6[nH]c(cc1n2)c(C)c6CC)C(C)=C5C(=O)C4)C(CCC(=O)OC(COC(=O)CCCCCCCCCCCCCCC)COP(=O)([O-])OCC[N+](C)(C)C)C3C` (stereo not shown) [Pyro-phospholipid], in data set [1], the well-tolerated intravenous dose was at most 1000 mg/kg.
In the data set on MIA Paca-2 tumors [2] (conventional PDT, 1.21 μmol/kg, light 24 h post injection, 300 J/cm^2), HPPH yielded a median survival of 38 days.
For the molecule `COc1cccc2c1C(=O)c1c(O)c3c(c(O)c1C2=O)C[C@@](O)(C(=O)CO)C[C@@H]3O[C@H]1C[C@H](N)[C@H](O)[C@H](C)O1` [Free Dox, Doxorubicin], the maximum tolerated dose in the data set with MIA Paca-2 tumors [3] was 7 mg/kg. The molecule also yielded a median survival in the data set on MIA Paca-2 tumors [2] (7 mg/kg, single dose, no laser) of 19 days.
